Laboratory results as given in ChEMBL document CHEMBL5113519, “Discovery of Novel Imidazo[4,5-c]quinoline Derivatives to Treat Inflammatory Bowel Disease (IBD) by Inhibiting Multiple Proinflammatory Signaling Pathways and Restoring Intestinal Homeostasis” (J Med Chem, 2022).
Activity calls are given as the source filed them. No cut-off for these calls is given here.

Experiments:
Mus musculus [1] = assay: Anti-inflammatory activity in TNBS induced IBD BALB/c mouse model assessed as reduction in bloody stool by measuring disease activity index score at 100 mg/kg via oral gavage administered daily for 12 days; type: functional, organism-based; conditions: time 12.0 day
Mus musculus [2] = assay: Antiinflammatory activity in DSS-induced acute colitis C57BL/6 mouse model assessed as reduction in inflammatory cell infiltration in colon by measuring histopathological score at 100 mg/kg, po by H and E staining based analysis; type: functional, organism-based
Mus musculus [3] = assay: Antiinflammatory activity in DSS-induced acute colitis C57BL/6 mouse model assessed as reduction in intestinal edema in colon by measuring histopathological score at 100 mg/kg, po by H and E staining based analysis; type: functional, organism-based
Mus musculus [4] = assay: Antiinflammatory activity in DSS-induced acute colitis C57BL/6 mouse model assessed as reduction in number of goblet cells in colon by measuring histopathological score at 100 mg/kg, po by H and E staining based analysis; type: functional, organism-based
Mus musculus [5] = assay: Anti-inflammatory activity in TNBS induced IBD BALB/c mouse model assessed as reduction in stool softness by measuring disease activity index score at 100 mg/kg via oral gavage administered daily for 12 days; type: functional, organism-based; conditions: time 12.0 day
Mus musculus [6] = assay: Antiinflammatory activity in DSS-induced acute enteritis C57BL mouse model assessed as suppression of DSS induced weight loss at 100 mg/kg, po administered daily and measured upto 11 days relative to control; type: functional; conditions: time <= 11 day
Mus musculus [7] = assay: Antiinflammatory activity in DSS-induced acute colitis C57BL/6 mouse model assessed as reduction in colon villi integrity in colon by measuring histopathological score at 100 mg/kg, po by H and E staining based analysis; type: functional, organism-based
Mus musculus [8] = assay: Anti-inflammatory activity in TNBS induced IBD BALB/c mouse model assessed as reduction in weight by measuring disease activity index score at 100 mg/kg via oral gavage administered daily for 12 days measured daily; type: functional, organism-based; conditions: time 12.0 day
Mus musculus [9] = assay: Antiinflammatory activity in DSS-induced acute colitis C57BL/6 mouse model assessed as reduction in lamina propria damage in colon by measuring histopathological score at 100 mg/kg, po by H and E staining based analysis; type: functional, organism-based
[10] = target: Tyrosine-protein kinase JAK1 (Homo sapiens, UniProt P23458); assay: Inhibition of JAK1 (unknown origin) using Kinase/Tyr 6 peptide as substrate incubated for 1 hrs in presence of ATP by fluorescence microplate reader analysis
Tyrosine-protein kinase JAK1, sequence (P23458 whole entry): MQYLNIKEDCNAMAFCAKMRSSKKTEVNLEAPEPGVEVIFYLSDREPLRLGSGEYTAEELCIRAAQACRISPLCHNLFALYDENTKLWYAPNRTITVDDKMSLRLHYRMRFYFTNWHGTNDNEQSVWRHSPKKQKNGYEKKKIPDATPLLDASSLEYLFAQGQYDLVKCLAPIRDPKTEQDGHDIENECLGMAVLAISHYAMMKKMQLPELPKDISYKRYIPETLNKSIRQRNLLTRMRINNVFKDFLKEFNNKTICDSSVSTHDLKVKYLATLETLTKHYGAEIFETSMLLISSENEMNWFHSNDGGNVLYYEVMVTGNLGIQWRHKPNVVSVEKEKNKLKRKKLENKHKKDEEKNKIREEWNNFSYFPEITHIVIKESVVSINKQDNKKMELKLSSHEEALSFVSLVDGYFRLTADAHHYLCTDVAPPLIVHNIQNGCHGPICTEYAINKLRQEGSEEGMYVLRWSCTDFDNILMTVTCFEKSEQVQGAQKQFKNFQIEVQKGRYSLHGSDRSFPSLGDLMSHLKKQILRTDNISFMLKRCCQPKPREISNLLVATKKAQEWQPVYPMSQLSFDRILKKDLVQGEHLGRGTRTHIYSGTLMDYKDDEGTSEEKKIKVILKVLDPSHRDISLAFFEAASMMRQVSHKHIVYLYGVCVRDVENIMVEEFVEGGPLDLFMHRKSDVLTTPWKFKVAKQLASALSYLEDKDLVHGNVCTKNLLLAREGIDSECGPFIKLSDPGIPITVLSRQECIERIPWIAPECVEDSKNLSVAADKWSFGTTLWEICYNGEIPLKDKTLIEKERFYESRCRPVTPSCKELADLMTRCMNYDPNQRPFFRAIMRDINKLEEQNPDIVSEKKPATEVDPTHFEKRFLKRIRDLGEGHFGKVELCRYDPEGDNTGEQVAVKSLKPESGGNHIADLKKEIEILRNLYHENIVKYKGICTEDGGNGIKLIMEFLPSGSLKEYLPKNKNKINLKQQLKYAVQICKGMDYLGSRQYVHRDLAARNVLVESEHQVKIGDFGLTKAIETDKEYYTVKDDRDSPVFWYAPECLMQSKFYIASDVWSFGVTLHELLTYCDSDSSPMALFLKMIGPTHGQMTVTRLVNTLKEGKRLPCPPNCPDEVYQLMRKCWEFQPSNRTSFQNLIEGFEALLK

[11] = target: Tyrosine-protein kinase JAK2 (Homo sapiens, UniProt O60674)
Tyrosine-protein kinase JAK2, sequence (O60674 whole entry): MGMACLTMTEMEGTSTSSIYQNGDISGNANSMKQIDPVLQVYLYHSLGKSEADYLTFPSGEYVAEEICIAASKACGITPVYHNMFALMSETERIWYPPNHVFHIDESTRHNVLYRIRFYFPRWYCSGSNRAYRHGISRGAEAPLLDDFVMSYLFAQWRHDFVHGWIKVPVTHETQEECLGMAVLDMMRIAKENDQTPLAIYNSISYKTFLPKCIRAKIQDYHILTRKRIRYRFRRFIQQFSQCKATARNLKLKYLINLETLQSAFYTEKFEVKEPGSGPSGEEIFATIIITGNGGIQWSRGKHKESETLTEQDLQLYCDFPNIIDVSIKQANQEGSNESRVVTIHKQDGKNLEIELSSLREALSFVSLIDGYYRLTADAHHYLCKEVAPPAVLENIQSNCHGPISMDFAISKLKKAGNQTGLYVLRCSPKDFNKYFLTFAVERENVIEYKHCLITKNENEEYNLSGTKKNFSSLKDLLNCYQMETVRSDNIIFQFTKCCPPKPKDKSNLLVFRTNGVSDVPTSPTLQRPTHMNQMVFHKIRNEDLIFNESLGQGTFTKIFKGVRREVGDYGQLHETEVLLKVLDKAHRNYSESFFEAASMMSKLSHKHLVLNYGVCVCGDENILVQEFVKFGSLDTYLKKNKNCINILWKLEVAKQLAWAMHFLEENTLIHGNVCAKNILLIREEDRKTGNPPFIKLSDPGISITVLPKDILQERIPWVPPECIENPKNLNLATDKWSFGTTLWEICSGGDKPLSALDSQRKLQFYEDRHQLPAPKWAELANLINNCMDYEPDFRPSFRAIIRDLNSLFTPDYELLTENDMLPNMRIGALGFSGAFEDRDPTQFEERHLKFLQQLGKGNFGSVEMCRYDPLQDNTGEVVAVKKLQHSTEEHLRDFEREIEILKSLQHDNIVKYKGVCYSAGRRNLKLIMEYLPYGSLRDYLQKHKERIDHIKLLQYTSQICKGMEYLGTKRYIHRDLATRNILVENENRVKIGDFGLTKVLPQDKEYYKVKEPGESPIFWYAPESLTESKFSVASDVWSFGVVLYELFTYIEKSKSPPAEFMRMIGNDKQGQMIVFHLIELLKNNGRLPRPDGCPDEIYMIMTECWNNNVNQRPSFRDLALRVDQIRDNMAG
Description: Inhibition of JAK2 (unknown origin) using Kinase/Tyr 6 peptide as substrate incubated for 1 hrs in presence of ATP by fluorescence microplate reader analysis

[12] = target: T1, Tyrosine-protein kinase JAK3 (Homo sapiens, UniProt P52333)
T1 sequence (P52333 whole entry): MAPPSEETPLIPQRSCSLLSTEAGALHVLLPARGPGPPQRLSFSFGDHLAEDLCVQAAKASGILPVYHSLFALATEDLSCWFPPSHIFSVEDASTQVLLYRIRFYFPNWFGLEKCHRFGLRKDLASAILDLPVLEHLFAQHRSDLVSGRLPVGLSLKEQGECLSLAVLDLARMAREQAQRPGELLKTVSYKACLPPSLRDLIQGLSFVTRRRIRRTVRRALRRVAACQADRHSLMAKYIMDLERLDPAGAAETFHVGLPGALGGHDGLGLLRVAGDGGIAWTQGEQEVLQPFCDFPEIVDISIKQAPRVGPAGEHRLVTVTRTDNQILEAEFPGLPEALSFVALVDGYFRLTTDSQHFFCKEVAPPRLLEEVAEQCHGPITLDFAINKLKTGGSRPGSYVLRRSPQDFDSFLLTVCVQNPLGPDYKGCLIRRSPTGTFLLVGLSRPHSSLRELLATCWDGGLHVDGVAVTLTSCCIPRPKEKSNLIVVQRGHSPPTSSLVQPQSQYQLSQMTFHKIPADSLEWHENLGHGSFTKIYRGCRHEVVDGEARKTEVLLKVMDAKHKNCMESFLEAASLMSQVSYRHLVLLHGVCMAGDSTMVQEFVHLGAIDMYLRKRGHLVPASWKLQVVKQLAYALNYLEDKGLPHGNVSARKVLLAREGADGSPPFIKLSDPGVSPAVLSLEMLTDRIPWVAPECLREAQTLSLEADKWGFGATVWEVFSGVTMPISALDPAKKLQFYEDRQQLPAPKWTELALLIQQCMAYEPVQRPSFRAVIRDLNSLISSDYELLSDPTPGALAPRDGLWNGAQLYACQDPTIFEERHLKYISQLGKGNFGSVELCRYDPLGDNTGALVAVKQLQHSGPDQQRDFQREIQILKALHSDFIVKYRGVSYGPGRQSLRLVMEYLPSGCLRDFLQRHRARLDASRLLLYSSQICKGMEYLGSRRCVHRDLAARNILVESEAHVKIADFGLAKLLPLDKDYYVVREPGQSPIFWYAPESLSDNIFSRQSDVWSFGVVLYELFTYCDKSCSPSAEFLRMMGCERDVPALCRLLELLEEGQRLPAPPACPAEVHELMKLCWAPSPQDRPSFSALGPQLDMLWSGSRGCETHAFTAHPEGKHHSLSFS
Description: Inhibition of JAK3 (unknown origin) using Kinase/Tyr 6 peptide as substrate incubated for 1 hrs in presence of ATP by fluorescence microplate reader analysis

[13] = target: Nuclear factor NF-kappa-B complex (Homo sapiens, UniProt P19838+Q00653+Q04206); assay: Inhibition of NF kappa B activation (unknown origin); type: protein-complex assay
Nuclear factor NF-kappa-B complex, sequence (P19838 1-433 limits assumed): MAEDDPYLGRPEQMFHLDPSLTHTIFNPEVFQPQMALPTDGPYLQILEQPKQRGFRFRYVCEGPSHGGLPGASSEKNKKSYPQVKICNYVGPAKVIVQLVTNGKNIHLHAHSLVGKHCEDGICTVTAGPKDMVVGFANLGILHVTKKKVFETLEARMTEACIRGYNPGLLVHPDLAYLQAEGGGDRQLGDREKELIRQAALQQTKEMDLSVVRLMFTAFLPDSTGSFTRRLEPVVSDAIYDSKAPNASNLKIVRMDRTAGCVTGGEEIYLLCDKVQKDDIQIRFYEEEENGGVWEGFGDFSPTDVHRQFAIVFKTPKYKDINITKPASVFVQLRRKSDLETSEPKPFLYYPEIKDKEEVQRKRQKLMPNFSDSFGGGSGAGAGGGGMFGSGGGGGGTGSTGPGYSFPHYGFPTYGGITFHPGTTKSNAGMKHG
Nuclear factor NF-kappa-B complex, sequence (Q00653 1-454 limits assumed): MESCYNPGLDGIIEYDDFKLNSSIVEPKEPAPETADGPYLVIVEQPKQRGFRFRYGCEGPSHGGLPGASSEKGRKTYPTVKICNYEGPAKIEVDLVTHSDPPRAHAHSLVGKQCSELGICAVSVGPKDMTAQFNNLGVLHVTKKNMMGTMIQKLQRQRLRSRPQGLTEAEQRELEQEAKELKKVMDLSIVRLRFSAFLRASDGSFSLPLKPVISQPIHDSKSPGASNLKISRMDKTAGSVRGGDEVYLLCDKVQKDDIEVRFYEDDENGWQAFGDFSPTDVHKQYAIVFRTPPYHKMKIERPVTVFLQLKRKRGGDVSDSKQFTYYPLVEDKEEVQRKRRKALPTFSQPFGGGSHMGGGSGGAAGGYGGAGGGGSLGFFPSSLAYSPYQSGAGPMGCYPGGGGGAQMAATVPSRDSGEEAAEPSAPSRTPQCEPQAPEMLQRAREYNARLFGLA
Nuclear factor NF-kappa-B complex, sequence (Q04206 whole entry): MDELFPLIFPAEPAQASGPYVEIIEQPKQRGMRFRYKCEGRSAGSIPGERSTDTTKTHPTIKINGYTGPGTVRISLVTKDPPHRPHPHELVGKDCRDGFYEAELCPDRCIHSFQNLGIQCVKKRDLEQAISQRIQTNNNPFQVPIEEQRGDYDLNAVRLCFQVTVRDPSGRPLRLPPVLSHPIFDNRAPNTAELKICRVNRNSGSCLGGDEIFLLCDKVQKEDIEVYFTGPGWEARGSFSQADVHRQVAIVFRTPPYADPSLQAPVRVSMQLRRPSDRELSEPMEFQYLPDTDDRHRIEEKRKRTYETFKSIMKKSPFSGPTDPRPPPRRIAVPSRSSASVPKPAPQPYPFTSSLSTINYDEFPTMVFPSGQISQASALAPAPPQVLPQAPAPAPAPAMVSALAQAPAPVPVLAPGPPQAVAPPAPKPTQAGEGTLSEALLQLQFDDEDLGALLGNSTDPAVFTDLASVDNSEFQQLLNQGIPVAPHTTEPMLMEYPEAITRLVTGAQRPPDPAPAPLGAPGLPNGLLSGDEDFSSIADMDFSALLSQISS

[14] = Cytotoxicity against human THP1-Dual cells assessed as inhibition of cell growth measured after 24 hrs by CCK-8 method; type: toxicity, cell-based

Structure (SMILES)	IC50 [10]	IC50 [12]	also measured
Nc1ccc(O)c(C(=O)O)c1 [MESALAMINE]			Activity (Mus musculus [1]): Active; Activity (Mus musculus [2]): Active; Activity (Mus musculus [3]): Active; Activity (Mus musculus [4]): Active; Activity (Mus musculus [5]): Active; Activity (Mus musculus [6]): 11.69%; Activity (Mus musculus [7]): Active; Activity (Mus musculus [8]): Active; Activity (Mus musculus [9]): Active
Cc1nc2cnc3ccc(-c4ccccc4O)cc3c2n1C1CCN(C)CC1	> 500 nM		
Cc1nc2cnc3ccc(-c4ccc(O)cc4F)cc3c2n1C1CCN(C)CC1	237 nM	> 500 nM	
Cc1cc(-c2ccc3ncc4nc(C)n(C5CCN(C)CC5)c4c3c2)ccc1O	435 nM	> 500 nM	
Cc1nc2cnc3ccc(-c4ccc(O)cc4Cl)cc3c2n1C1CCN(C)CC1	386 nM	> 500 nM	
O=C(c1ccccc1)c1ccc2nc(NC(=O)c3csc(C4CCN(c5ncnc6ccsc56)CC4)n3)[nH]c2c1			IC50 [13]: 200 nM
Cc1nc2cnc3ccc(-c4ccc(N5CCOCC5)cc4)cc3c2n1C1CCN(C)CC1	> 500 nM		
Cc1nc2cnc3ccc(-c4ccc(O)c(C(F)(F)F)c4)cc3c2n1C1CCN(C)CC1	> 500 nM	> 500 nM	
Cc1nc2cnc3ccc(-c4ccc5c(c4)OCCO5)cc3c2n1C1CCN(C)CC1	> 500 nM		
Cc1nc2cnc3ccc(-c4ccc(O)cc4)cc3c2n1C1CCN(C)CC1	560 nM	> 500 nM	
Cc1nc2cnc3ccc(-c4cc(Cl)cc(Cl)c4)cc3c2n1C1CCN(C)CC1	> 500 nM	> 500 nM	
COc1cc(-c2ccc3ncc4nc(C)n(C5CCN(C)CC5)c4c3c2)ccc1O	776 nM	> 500 nM	
Cc1nc2cnc3ccc(-c4ccc(F)c(O)c4)cc3c2n1C1CCN(C)CC1	> 500 nM		

More lines, in order of falling IC50 [10], values ahead:

IC50 [10]	IC50 [12]	Structure (SMILES)	also measured
236 nM	> 500 nM	Cc1nc2cnc3ccc(-c4ccc(O)c(C#N)c4)cc3c2n1C1CCN(C)CC1	
100 nM	> 500 nM	Cc1cc(-c2ccc3ncc4nc(C)n(C5CCN(C)CC5)c4c3c2)cc(C)c1O	
42.3 nM	> 500 nM	Cc1nc2cnc3ccc(-c4ccc(O)c(Cl)c4)cc3c2n1C1CCN(C)CC1	
30 nM	> 500 nM	Cc1nc2cnc3ccc(-c4ccc(O)c(F)c4)cc3c2n1C1CCN(C)CC1	IC50 [11]: > 500 nM
19.4 nM	> 500 nM	Cc1nc2cnc3ccc(-c4cc(F)c(O)c(F)c4)cc3c2n1C1CCN(C)CC1	IC50 [11]: > 500 nM
16.7 nM	63 nM	Cc1nc2cnc3ccc(-c4cc(Cl)c(O)c(Cl)c4)cc3c2n1[C@H]1CC[C@H](N(C)C)CC1	
11.9 nM	127 nM	Cc1nc2cnc3ccc(-c4cc(F)c(O)c(Cl)c4)cc3c2n1C1CCN(C)CC1	IC50 [11]: 136 nM
9.9 nM	20.2 nM	Cc1nc2cnc3ccc(-c4cc(Cl)c(O)c(Cl)c4)cc3c2n1[C@H]1CC[C@H](O)CC1	
7.4 nM	62 nM	Cc1nc2cnc3ccc(-c4cc(Cl)c(O)c(Cl)c4)cc3c2n1C1CCN(CN(C)C)CC1	
7.2 nM	15.4 nM	Cc1nc2cnc3ccc(-c4cc(Cl)c(O)c(Cl)c4)cc3c2n1[C@H]1CC[C@H](CO)CC1	IC50 [11]: 12.6 nM
6.8 nM	20.8 nM	Cc1nc2cnc3ccc(-c4cc(Cl)c(O)c(Cl)c4)cc3c2n1C1CCOCC1	IC50 [11]: 22.6 nM
6.6 nM	4.9 nM	Cc1nc2cnc3ccc(-c4cc(Cl)c(O)c(Cl)c4)cc3c2n1C1CCCN(C)C1 (stereo not drawn)	
5.5 nM	19.6 nM	Cc1nc2cnc3ccc(-c4cc(Cl)c(O)c(Cl)c4)cc3c2n1[C@H]1CCCN(C)C1	
2.6 nM	3.2 nM	Cc1nc2cnc3ccc(-c4cc(Cl)c(O)c(Cl)c4)cc3c2n1[C@@H]1CCCN(C)C1	IC50 [11]: 13.5 nM; IC50 at 24 h [14]: 2000 nM
